# Where a name gives a salt, the structure may show the parent alone.
# How the values were obtained:
# Format in all cases: biochemical
# Coll3 = Coll3 (Homo sapiens, UniProt P45452); assay: MCA fluorogenic enzyme assay, competitive inhibition analysis (Ki,app), Coll3; settings: MCA peptide substrate, 37° C., pH 7.5, read-out: Enzyme Inhibition Constants (K1) Coll3
# stromelysin (HSLN) = stromelysin (HSLN) (Homo sapiens, UniProt P08254); assay: MCA fluorogenic enzyme assay, competitive inhibition analysis (Ki,app), stromelysin; settings: Ki,app; MCA peptide substrate, 37° C., pH 7.5; read-out: Enzyme Inhibition Constants (K1) HSLN
# gelatinase A (HG72kD) = target: T1, gelatinase A (HG72kD) (Homo sapiens, UniProt P08253); assay: MCA fluorogenic enzyme assay, competitive inhibition analysis (Ki,app), gelatinase A; settings: MCA peptide substrate, 37° C., pH 7.5, read-out: Enzyme Inhibition Constants (K1) HG72kD
# T1 sequence (P08253 110-660): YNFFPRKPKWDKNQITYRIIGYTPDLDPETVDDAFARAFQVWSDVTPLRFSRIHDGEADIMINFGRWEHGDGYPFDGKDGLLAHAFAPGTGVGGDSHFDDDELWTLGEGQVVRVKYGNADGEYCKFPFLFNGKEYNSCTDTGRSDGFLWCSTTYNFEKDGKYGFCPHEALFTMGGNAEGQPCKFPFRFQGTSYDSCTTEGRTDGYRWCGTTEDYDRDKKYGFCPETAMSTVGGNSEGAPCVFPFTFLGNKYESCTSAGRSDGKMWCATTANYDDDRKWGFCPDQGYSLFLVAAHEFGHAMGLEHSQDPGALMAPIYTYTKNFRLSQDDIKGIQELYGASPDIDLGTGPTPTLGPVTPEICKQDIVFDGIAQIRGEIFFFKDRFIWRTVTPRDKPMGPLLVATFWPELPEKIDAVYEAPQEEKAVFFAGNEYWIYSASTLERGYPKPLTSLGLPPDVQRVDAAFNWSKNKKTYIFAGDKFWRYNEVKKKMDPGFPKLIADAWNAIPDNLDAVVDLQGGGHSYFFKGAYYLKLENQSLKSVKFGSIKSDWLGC
# HFC = target: T2, HFC (Homo sapiens, UniProt P03956); assay: MCA fluorogenic enzyme assay, competitive inhibition analysis (Ki,app), HFC; settings: MCA peptide substrate, 37° C., pH 7.5, read-out: Enzyme Inhibition Constants (K1) HFC
# T2 sequence (P03956 100-469): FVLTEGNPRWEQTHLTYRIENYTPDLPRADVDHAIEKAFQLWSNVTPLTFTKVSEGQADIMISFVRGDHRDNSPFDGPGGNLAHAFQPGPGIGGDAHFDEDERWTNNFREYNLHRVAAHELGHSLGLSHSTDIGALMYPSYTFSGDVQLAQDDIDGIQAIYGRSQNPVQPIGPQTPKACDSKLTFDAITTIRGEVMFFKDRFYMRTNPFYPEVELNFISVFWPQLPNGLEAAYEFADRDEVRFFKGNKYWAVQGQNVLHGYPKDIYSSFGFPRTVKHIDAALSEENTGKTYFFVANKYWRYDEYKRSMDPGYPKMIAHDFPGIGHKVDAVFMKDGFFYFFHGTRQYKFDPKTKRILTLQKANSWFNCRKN
# matrilysin (Matr.) = target: T3, matrilysin (Matr.) (Homo sapiens, UniProt P09237); assay: MCA fluorogenic enzyme assay, competitive inhibition analysis (Ki,app), matrilysin; settings: MCA peptide substrate, 37° C., pH 7.5, read-out: Enzyme Inhibition Constants (K1) Matr.
# T3 sequence (P09237 95-267): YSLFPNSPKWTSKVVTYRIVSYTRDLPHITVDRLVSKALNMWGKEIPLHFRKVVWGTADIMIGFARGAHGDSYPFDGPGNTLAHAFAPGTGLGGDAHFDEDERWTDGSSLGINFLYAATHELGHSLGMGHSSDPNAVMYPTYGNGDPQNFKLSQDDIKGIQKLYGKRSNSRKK
# Method: Stromelysin enzymatic activity was measured using a modified version of a resonance energy transfer fluorogenic assay as described in FEBS, vol. 296(3), p. 263 (1992), the disclosure of which is incorporated herein by reference. The MCA-peptide substrate is shown below. The fluorescent MCA group is quenched by resonance energy transfer to the 2,4-dinitrophenyl group. Matrix metalloproteinases cleave this substrate at the Gly-Leu bond. Cleavage results in the loss of energy transfer and a large increase in fluorescence of the MCA group. [drawing 56] 7-methoxycoumarin-4-yl-acetyl-pro-leu-gly-leu-3-(2,4-dinitrophenyl)-L-2,3-diaminoproprionyl-ala-arg-NH2
# The MCA assay was performed at 37° C. in buffer containing 50 mM Tricine (pH 7.5), 10 mM CaCl2, 200 mM NaCl, and 1% DMSO with the following concentrations of matrix metalloproteinases: 1.4 nM stromelyin, 0.063 nM matrilysin, and 0.030 nM gelatinase A. The concentration of MCA substrate was 10 or 20 μM in a final volume of 1.6 mL. Fluorescence data was collected with Perkin-Elmer LS-5B and LS-5B spectrofluorimeters with λexcitation=328 nm and λemission=393 nm. Spectrofluorimeters were interfaced with IBM-compatible microcomputer systems.
# The Km for the MCA peptide substrate with the matrix metalloproteinases is quite high and exceeds its solubility under assay conditions. Consequently, the apparent Ki (Ki,app) was determined to describe the strength of inhibition. However, in this case, Ki,app would be essentially equal to Ki since [S]<<Km. For the determination of Ki,app, the concentration of the inhibitor was varied at a constant and low concentration of substrate and the steady-state rates of fluorescence change determined. In most cases absorptive quench due to the presence of ligand was not observed. For slow-binding inhibitors, onset of inhibition curves were collected for at least 45 minutes so that equilibrium was established. Steady-state rates of fluorescence change were obtained by fitting a curve to an equation for a single exponential decay containing a linear phase. The fitted value of the linear phase was taken as the steady-state rate. The steady-state rates were fitted to the Michaelis equation describing competitive inhibition by non-linear methods. Data resulting from tight-binding inhibition was analyzed, and Ki,app determined by fitting the data to the tight-binding equation of Morrison See (Biochem. Biophys. Acta, vol. 185, pp. 269-286 (1969)) by non-linear methods.
# Chain of stromelysin (HSLN) (P08254 100-477): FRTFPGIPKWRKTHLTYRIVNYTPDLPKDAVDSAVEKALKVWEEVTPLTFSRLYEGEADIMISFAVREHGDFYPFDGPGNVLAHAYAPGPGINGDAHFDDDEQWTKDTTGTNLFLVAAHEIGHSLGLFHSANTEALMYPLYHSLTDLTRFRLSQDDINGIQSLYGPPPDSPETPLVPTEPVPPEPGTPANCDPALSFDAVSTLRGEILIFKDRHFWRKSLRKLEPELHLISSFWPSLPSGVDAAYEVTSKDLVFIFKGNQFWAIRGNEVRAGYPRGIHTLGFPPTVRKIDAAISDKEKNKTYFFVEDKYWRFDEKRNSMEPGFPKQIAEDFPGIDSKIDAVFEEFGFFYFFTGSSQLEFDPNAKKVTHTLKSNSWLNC
Ki (Coll3),Ki (stromelysin (HSLN)),Ki (gelatinase A (HG72kD)),Ki (HFC),Ki (matrilysin (Matr.)),SMILES
0.035 nM,0.53 nM,0.028 nM,40 nM,313 nM,"O=C(NO)C1CSCCN1S(=O)(=O)c1ccc(Oc2ccc(F)cc2)cc1 (racemic) [Example 13(c), 3(R/S)-N-hydroxy-4-(4-(4-fluorophenoxy)benzenesulfonyl)-tetrahydro-2H-1,4-thiazine-3-carboxamide]"
0.01 nM,0.056 nM,0.009 nM,3.6 nM,11 nM,"CC1(C)[C@H](C(=O)NO)N(S(=O)(=O)c2ccc(Oc3ccc(Br)cc3)cc2)CC[S@@+]1[O-] [Example 17(a), 1(R),3(S)-N-hydroxy-4-(4-(4-bromophenoxy)benzenesulfonyl)-2,2-dimethyl-1-oxo-tetrahydro-2H-1,4-thiazine-3-carboxamide]"
0.068 nM,0.84 nM,0.066 nM,5.9 nM,–,"CC1(C)NC(=O)CN(S(=O)(=O)c2ccc(Oc3ccc(F)cc3)cc2)C1C(=O)NO (racemic) [Example 21, 2(R/S)-1-[4-(4-fluorophenoxy)benzenesulfonyl]-3,3-dimethyl-N-hydroxy-5-oxo-piperazine-2-carboxamide]"
0.029 nM,0.647 nM,0.025 nM,–,201 nM,"O=C(NO)C1CSCCN1S(=O)(=O)c1ccc(Oc2ccccc2)cc1 (racemic) [Example 13(b), 3(R/S)-N-hydroxy-4-(4-phenoxybenzenesulfonyl)-tetrahydro-2H-1,4-thiazine-3-carboxamide]"
0.001 nM,0.059 nM,0.017 nM,1.3 nM,–,"CC1(C)SCCN(S(=O)(=O)c2ccc(Oc3ccc(Cl)cc3)cc2)[C@H]1C(=O)NO [Example 3(b), 3(S)-N-hydroxy4-(4-(4-chlorophenoxy)benzenesulfonyl)-2,2-dimethyl-tetrahydro-2H-1,4-thiazine-3-carboxamide]"
0.363 nM,1 nM,0.413 nM,34 nM,171 nM,"O=C(NO)[C@H]1CNCCN1S(=O)(=O)c1ccc(Oc2ccc(Cl)cc2)cc1 [Example 10(a), 2(R)-N-hydroxy-1-(4-(4-chlorophenoxy)benzenesulfonyl)-piperazine-2-carboxamide hydrochloride]"
0.16 nM,2.3 nM,0.49 nM,31 nM,–,"CC1(C)[C@H](C(=O)NO)N(S(=O)(=O)c2ccc(Oc3ccncc3)cc2)CC[S@+]1[O-] [Example 19(a), 1(S), 3(S) isomer, 1(S), 3(S)-N-hydroxy-4-(4-((pyrid-4-yl)oxy)benzenesulfonyl)-2,2-dimethyl-1-oxotetrahydro-2H-1,4-thiazine-3-carboxamide]"
–,0.25 nM,–,48 nM,240 nM,"CCOC(=O)CN1CCN(S(=O)(=O)c2ccc(Oc3ccc(Cl)cc3)cc2)[C@@H](C(=O)NO)C1 [Example 11(c), 2(R)-N-hydroxy-1-(4-(4-chlorophenoxy)benzenesulfonyl)-4-(ethoxycarbonylmethyl)-piperazine-2-carboxamide hydrochloride]"
0.13 nM,1.4 nM,0.094 nM,32 nM,–,"CC1(C)[C@H](C(=O)NO)N(S(=O)(=O)c2ccc(Oc3ccncc3)cc2)CC[S@@+]1[O-] (single isomer, unassigned; isomer 1) [Example 19(a), 1(R), 3(S) isomer]"
–,0.333 nM,0.04 nM,–,169 nM,"O=C(NO)C1CSCCN1S(=O)(=O)c1ccc(Oc2ccc(Br)cc2)cc1 (racemic) [Example 13(a), 3(R/S)-N-hydroxy4-(4-bromophenoxybenzenesulfonyl)-tetrahydro-2H-1,4-thiazine-3-carboxamide]"
0.088 nM,4.4 nM,0.077 nM,–,–,"CC(=O)N1CCCN(S(=O)(=O)c2ccc(Oc3ccc(F)cc3)cc2)C1C(=O)NO (racemic) [Example 22, 2(R/S)-3-acetyl-1-4-(4-fluorophenoxy)benzenesulfonyl-N-hydroxy-hexahydropyrimidine-2-carboxamide]"
–,5.1 nM,0.152 nM,187 nM,1840 nM,"O=C1C[C@H](C(=O)NO)N(S(=O)(=O)c2ccc(Oc3ccc(F)cc3)cc2)CN1 [Example 15(b), 6(R)-(N-hydroxycarbamoyl)-1-(4-(4-fluorophenoxy)benzene-sulfonyl)-tetrahydropyrimidin-4-one]"

SMILES,Ki (Coll3),Ki (stromelysin (HSLN)),Ki (gelatinase A (HG72kD)),Ki (HFC),Ki (matrilysin (Matr.))
"O=C(NO)[C@@H]1C[S@+]([O-])CCN1S(=O)(=O)c1ccc(Oc2ccc(Br)cc2)cc1 (racemic) [Example 14(a), 1(R/S),3(R/S)-N-hydroxy-1-oxo-4-(4-(4-bromophenoxy)benzene-sulfonyl)-tetrahydro-2H-1,4-thiazine-3-carboxamide]",0.017 nM,0.41 nM,0.013 nM,23 nM,109 nM
"CC(C)(C)OC(=O)N1CCN(S(=O)(=O)c2ccc(Oc3ccc(F)cc3)cc2)[C@@H](C(=O)NO)C1 [Example 9(b), 2(R)-N-hydroxy-1-(4-(4-fluorophenoxy)benzenesulfonyl)-4-(t-butoxycarbonyl)-piperazine-2-carboxamide]",–,0.49 nM,0.026 nM,18 nM,220 nM
"CN1CCN(S(=O)(=O)c2ccc(Oc3ccccc3)cc2)[C@@H](C(=O)NO)C1 [Example 11(b), 2(R)-N-hydroxy-1-(4-phenoxybenzenesulfonyl)-4-methyl-piperazine-2-carboxamide]",0.158 nM,6.3 nM,0.101 nM,–,2180 nM
COc1ccc(Oc2ccc(S(=O)(=O)N3CCN(S(C)(=O)=O)CC3C(=O)NO)cc2)cc1 (racemic) [Example 12(c)],–,0.19 nM,–,16 nM,74 nM
"CNC(=O)N1CCN(S(=O)(=O)c2ccc(Oc3ccc(Cl)cc3)cc2)C(C(=O)NO)C1 (racemic) [Example 6(a), 2(R/S)-N-hydroxy-1-(4-(4-chlorophenoxy)benzenesulfonyl)-4-(N-methylcarbamoyl)-piperazine-2-carboxamide]",0.016 nM,0.406 nM,0.034 nM,–,109 nM

# Reference: patent publication US6849732B2, “Metalloproteinase inhibitors, pharmaceutical compositions containing them and their pharmaceutical uses, and methods and intermediates useful for their preparation” (Agouron Pharmaceuticals, Inc., priority 1995, dated 2005)
